Data from paper PMC8198792, “Prediction of Anticancer Peptides with High Efficacy and Low Toxicity by Hybrid Model Based on 3D Structure of Peptides” (International Journal of Molecular Sciences, 2021).
Bridge positions count the residues as written; N and C are the ends. Peptide text beside a SMILES is read from it.

Experiments:
[1] = test system: cervical cancer cell line (HeLa); format: cell-based, human; conditions: 24 h
Text: (§1) Five peptides were randomly selected from the candidate ACPs and synthesized by Changzhou Kanglong Biotech Ltd (Changzhou, China). using 9-fuorenylmethoxy carbonyl (FMOC) solid phase synthesis technology. The synthetic peptide was identified by mass spectrometry (MS), and the purity >95% by high performance liquid chromatography (HPLC). Human breast cancer cell line (MCF7), lung cancer cell line (A549), cervical cancer cell line (HeLa), colorectal adenocarcinoma cell line (LoVo) and human embryonic kidney cells (293T) were preserved in our laboratory. At 37 °C under 5/95% CO2/air condition, all cell lines were cultured in Dulbecco’s modified Eagle medium (DMEM) supplemented with 10% (v/v) fetal bovine serum (FBS, Gibco, Carlsbad, CA, USA) and 1% (v/v) penicillin/streptomycin (Sangon Biotech, Shanghai, China).
(§2) Human tumor cell lines MCF7, A549, HeLa and LoVo were used as experimental materials to detect the anticancer activity of peptides by MTT assay. In addition, human embryonic kidney cells 293T were also included in the experiment to examine the safety of the peptide against non-cancerous cells. […] Untreated cells as negative control group incubated with corresponding medium for 24 h. Subsequently, 10 uL, 5 mg/mL MTT (Sangon Biotech, Shanghai, China) solution was added to each well and incubated for 4 h at 37 °C. After the medium was discarded, 150 μL DMSO was added to each well for 10 min to dissolve formazan crystals. Absorbance was measured at 570 and 630 nm using a multiwall plate reader and the inhibition rate was expressed as the mean ± standard deviation (SD) of the triplicate data.

[2] = test system: lung cancer cell line (A549); format: cell-based, human; conditions: for IC50 / killing effects on lung cancer cell A549 (in words): 24 h; for selective killing effect on lung cancer A549 cells relative to 293T cells (in words): A549 versus 293T, MTT IC50; for killing effects on lung cancer cell A549 (in words): MTT, anticancer activity when IC50 less than 50 μM
Text: as §1, §2

[3] = test system: Human breast cancer cell line (MCF7); format: cell-based; conditions: 24 h
Text: as §1, §2

[4] = test system: human embryonic kidney cells (293T); assay: MTT assay on non-cancerous cells, 293T; format: cell-based; conditions: 24 h; for toxicity to 293T cells (in words): low toxicity when the IC50 value exceeded 50 μM, MTT
Text: as §1, §2

[5] = test system: colorectal adenocarcinoma cell line (LoVo); format: cell-based, human; conditions: 24 h
Text: as §1, §2

| Compound | IC50 [1] [µM] | IC50 [2] [µM] | IC50 [3] [µM] | IC50 [4] [µM] | toxicity to 293T cells (in words) [4] | IC50 [5] [µM] | selective killing effect on lung cancer A549 cells relative to 293T cells (in words) [2] | killing effects on lung cancer cell A549 (in words) [2] |
| --- | --- | --- | --- | --- | --- | --- | --- | --- |
| CC[C@H](C)[C@@H]1NC(=O)[C@H](CCCCN)NC(=O)[C@@H](NC(=O)[C@H](CCCCN)NC(=O)[C@H](CC(C)C)NC(=O)CNC(=O)[C@H](CCC(=O)O)NC(=O)[C@H](CC(C)C)NC(=O)[C@H](CCCCN)NC(=O)CNC(=O)[C@H](C)NC(=O)[C@@H](NC(=O)[C@H](CC(=O)O)NC(=O)[C@H](CCCCN)NC(=O)[C@H](C)NC(=O)[C@H](C)NC(=O)CNC(=O)[C@H](CCCCN)NC(=O)[C@H](CC(C)C)NC(=O)[C@@H](NC(=O)[C@H](CC(=O)O)NC(=O)[C@H](CC(C)C)NC(=O)[C@H](Cc2ccccc2)NC(=O)[C@H](CC(C)C)NC(=O)CN)[C@@H](C)O)C(C)C)CSSC[C@@H](C(=O)N[C@@H](CCCCN)C(=O)N[C@@H](CC(C)C)C(=O)N2CCC[C@H]2C(=O)O)NC(=O)CNC(=O)[C@H]([C@@H](C)O)NC1=O [RANATUERIN2] (H-GLFLDTLKGAAKDVAGKLEGLKCKITGCKLP-OH; disulfide 23-28; N-terminus and C-terminus assumed) | > 128 | > 128 | > 128 | > 128 | low toxicity | – | – | – |
| CC[C@H](C)[C@H](NC(=O)CN)C(=O)N[C@@H](CC(C)C)C(=O)N[C@@H](CO)C(=O)N[C@@H](CO)C(=O)N[C@H](C(=O)N[C@@H](CCCCN)C(=O)NCC(=O)N[C@H](C(=O)N[C@@H](C)C(=O)N[C@@H](CCCCN)C(=O)NCC(=O)N[C@H](C(=O)N[C@@H](C)C(=O)N[C@@H](CCCCN)C(=O)N[C@@H](CC(N)=O)C(=O)N[C@H](C(=O)N[C@@H](C)C(=O)N[C@@H](C)C(=O)N[C@@H](CCC(N)=O)C(=O)N[C@@H](CC(C)C)C(=O)N[C@@H](CC(C)C)C(=O)N[C@@H](CC(=O)O)C(=O)N[C@H](C(=O)N[C@@H](CC(C)C)C(=O)N[C@@H](CCCCN)C(=O)N[C@H]1CSSC[C@@H](C(=O)O)NC(=O)CNC(=O)[C@H]([C@@H](C)O)NC(=O)[C@H]([C@@H](C)CC)NC(=O)[C@H](CCCCN)NC1=O)[C@@H](C)O)C(C)C)C(C)C)C(C)C)[C@@H](C)CC [RANATUERIN-2Lb] (H-GILSSIKGVAKGVAKNVAAQLLDTLKCKITGC-OH; disulfide 27-32; N-terminus and C-terminus assumed) | 37.2 | 15.3 | 45.2 | 63.2 | low toxicity | 59.8 | selective killing effect | effective killing effects |
| CC[C@H](C)[C@H](NC(=O)CN)C(=O)N[C@@H](Cc1ccccc1)C(=O)N[C@@H](CC(=O)O)C(=O)N[C@H](C(=O)N[C@H](C(=O)N[C@@H](CCCCN)C(=O)NCC(=O)N[C@H](C(=O)N[C@@H](CC(C)C)C(=O)N[C@@H](CCCCN)C(=O)NCC(=O)N[C@H](C(=O)NCC(=O)N[C@@H](CCCCN)C(=O)N[C@@H](CC(N)=O)C(=O)N[C@H](C(=O)N[C@@H](C)C(=O)NCC(=O)N[C@@H](CO)C(=O)N[C@@H](CC(C)C)C(=O)N[C@@H](CC(C)C)C(=O)N[C@@H](CCC(=O)O)C(=O)N[C@@H](CCC(N)=O)C(=O)N[C@@H](CC(C)C)C(=O)N[C@@H](CCCCN)C(=O)N[C@H]1CSSC[C@@H](C(=O)O)NC(=O)CNC(=O)CNC(=O)[C@H](CO)NC(=O)[C@H](CC(C)C)NC(=O)[C@H](CCCCN)NC1=O)C(C)C)C(C)C)C(C)C)C(C)C)C(C)C [Brevinin-2DYd] (H-GIFDVVKGVLKGVGKNVAGSLLEQLKCKLSGGC-OH; disulfide 27-33; N-terminus and C-terminus assumed) | 19.7 | 2.98 | 25.7 | 5.83 | highest toxicity | 8.05 | – | effective killing effects |
| CC(C)C[C@H](NC(=O)CN)C(=O)N[C@@H](Cc1ccccc1)C(=O)N[C@@H](CC(=O)O)C(=O)N[C@H](C(=O)N[C@H](C(=O)N[C@@H](CCCCN)C(=O)NCC(=O)N[C@H](C(=O)N[C@@H](CC(C)C)C(=O)N[C@@H](CCCCN)C(=O)NCC(=O)N[C@@H](C)C(=O)NCC(=O)N[C@@H](CCCCN)C(=O)N[C@@H](CC(N)=O)C(=O)N[C@H](C(=O)N[C@@H](C)C(=O)NCC(=O)N[C@@H](CO)C(=O)N[C@@H](CC(C)C)C(=O)N[C@@H](CC(C)C)C(=O)N[C@@H](CCC(=O)O)C(=O)N[C@@H](CCC(N)=O)C(=O)N[C@@H](CC(C)C)C(=O)N[C@@H](CCCCN)C(=O)N[C@H]1CSSC[C@@H](C(=O)O)NC(=O)CNC(=O)CNC(=O)[C@H](CO)NC(=O)[C@H](CC(C)C)NC(=O)[C@H](CCCCN)NC1=O)C(C)C)C(C)C)C(C)C)C(C)C [Brevinin-2DYb] (H-GLFDVVKGVLKGAGKNVAGSLLEQLKCKLSGGC-OH; disulfide 27-33; N-terminus and C-terminus assumed) | 23.3 | 24 | 37.8 | 50.7 | low toxicity | 35.1 | selective killing effect | effective killing effects |
